Key:
NK cells [1] = experiment: Daratumumab in PBMC culture: NK cell frequency and numbers; format: cell-based, human
Description: Based on the expression levels of CD38 on NK and T cells, the effect of an anti-CD38 antibody, daratumumab (TAB-236, Creative Biolabs), on such cells was assessed. […] The effect of 10% complement on the cell cultures was also tested. Untreated cells and cells treated with 0.01, 0.1 or 1 μg/mL isotype control mAb (human IgG1k) (cat #403501, BioLegend) were used as controls. After 96 hours of culture, NK and T cell frequency and numbers were measured.

anti-BCMA CAR T cells [2] = experiment: Daratumumab on anti-BCMA CAR T cell numbers, frequency and activation; format: cell-based, human
Description: To assess whether daratumumab treatment affects CAR T cells with a disrupted β2M gene, anti-BCMA CAR T cells generated in Example 1 were treated with daratumumab with or without 10% complement. After a 72 hour culture period, anti-BCMA CAR T cell numbers and frequency were measured in a flow cytometry assay as described in Example 3 (FIGS. 12A-12B).
To determine if higher concentrations of daratumumab (10 μg/mL) activates CAR T cells and causes subsequent proliferation or activation-induced cell death, anti-BCMA CAR T cells deficient in B2M were cultured with daratumumab at concentrations of 0.1, 1 or 10 μg/mL for 24 hours. Untreated cells or anti-BCMA CAR T cells deficient in B2M treated with IgG1k isotype control mAb were used as controls.

multiple myeloma = details: third-line or fourth-line therapy; approximate; cited from earlier work
anti-BCMA CAR T cells [3] = experiment: High daratumumab concentrations in NK/CAR T co-culture: CAR T cell numbers; format: cell-based, human; details: up to 300 μg/mL; 72 hours
Description: (§1) Daratumumab is prescribed in the clinic at a dose of 16 mg/kg (225 μg/mL equivalent). To determine the effect of daratumumab at high concentrations on NK and CAR T cells, anti-BCMA CAR T cells deficient in B2M were co-cultured with purified NK cells that were pre-treated for 60 hours with either human IgGl^-k or daratumumab, each at concentrations of 0.01, 0.1, 1, 10, 100 or 300 μg/mL using methods as described in the previous examples. Flow cytometry was used to assess NK and CAR T cells numbers 72 hours after co-culturing with pre-treated NK cells using methods as described in the previous examples.

NK cells [4] = experiment: High daratumumab concentrations in NK/CAR T co-culture: NK cell numbers; format: cell-based, human; details: 72 hours
Description: as §1

NK cells [5] = experiment: NK cell-mediated CAR T cell lysis after daratumumab pre-treatment of NK cells (DAPI cell-kill assay); format: cell-based, human
Description: To determine if daratumumab blunts NK-cell mediated CAR T cell lysis, anti-BCMA CAR T cells were co-cultured with purified NK cells that were pre-treated for 60 hours with either daratumumab or isotype control mAb at concentrations of 0.01, 0.1, or 1 μg/mL (FIG. 13A). At the end of the 60 hour pre-treatment period, 50,000 efluor-labelled anti-BCMA CAR T cells were added to the plate containing 150,000 NK cells and Dara/isotype control, and incubated for an additional 24 hours. At the end of the 24-hour co-culture period, anti-BCMA CAR T cell lysis was measured in a cell-kill assay with DAPI.
Specifically, the anti-BCMA CAR T cells were labeled with 5 μM efluor670 (Cat #65-0840-90; ThermoFisher Scientific), washed and incubated in co-cultures with the NK cells at a 3:1 (NK:T) ratio. The co-culture was incubated 24 hr. After incubation, wells were washed and media was replaced with 150 μL of 1× FACS buffer containing a 1:500 dilution of 5 mg/mL DAPI (Molecular Probes) and 12.5 μL of CountBright beads (C36950; ThermoFisher Scientific).
To determine if 10 μg/mL daratumumab blunts NK-cell mediated CAR T cell lysis, anti-BCMA CAR T cells deficient in B2M were co-cultured with purified NK cells that were pre-treated for 60 hours with either daratumumab or isotype control mAb at concentrations of 0.1, 1 or 10 μg/mL. Briefly, NK cells were plated at 50,000 or 150,000 cells per well and treated with daratumumab or the isotype control at concentrations of 0, 0.1, 1 and 10 μg/mL. After 60 hours of treatment of NK cells with daratumumab, the anti-BCMA CAR T cells were labeled with 5 μM efluor670 (Cat #65-0840-90; ThermoFisher Scientific), washed and seeded at 50,000 cells per well in co-cultures with the daratumumab-treated NK cells to make 1:1 or 3:1 (NK:T) ratio. The co-culture was incubated for further 24 hr. […] The cells were analyzed for cell viability by flow cytometry (i.e., viable cells being negative for DAPI staining) Pre-treatment with daratumumab protected anti-BCMA CAR T cell from NK induced cell lysis in a dose-dependent manner (FIGS. 14B-14C). […]

MM.1S tumors = experiment: Daratumumab plus anti-BCMA CAR-T cells in subcutaneous MM.1S xenograft model; format: in vivo, NOG mice; details: high dose 2.4×10^6 CAR+ T cells iv day 0; daratumumab 15 mg/kg IP twice weekly
Description: The effect of combining daratumumab with anti-BCMA CAR-T cell treatment was tested in a subcutaneous MM.1S xenograft model in immunocompromised NOG mice (NOD.Cg-Prkdc^scidIl2rg^tm1Sug/JicTac). In brief, 5 to 8-week old female NOG mice were individually housed in ventilated microisolator cages and maintained under pathogen-free conditions. The animals each received a subcutaneous inoculation in the right flank of 5×10^6 MM.1S cells in 50% Matrigel. When the mean tumor volume reached 150 mm^3 (approximately 125 to 175 mm^3), the mice were randomized into groups with 5 mice per group. Tested groups included an untreated arm, daratumumab only treatment, anti-BCMA CAR-T cell only treatment (low dose or high dose), and anti-BCMA CAR-T cell (low dose or high dose) in combination with daratumumab. Anti-BCMA CAR-T cells were dosed by intravenous injection of 0.8×10^6 (low dose) or 2.4×10^6 (high dose) CAR^+ T cells at day 0. Daratumumab was dosed IP at 15 mg/kg, twice weekly, starting 2 days prior to anti-BCMA CAR-T cell dosing.
Tumor volume and body weights were measured twice weekly and individual mice were euthanized when their tumor volume reached ≥2000 mm^3.

T cells = experiment: Daratumumab in PBMC culture: T cell frequency and numbers; format: cell-based, human; details: 0.01, 0.1 or 1 μg/mL, 96 hours
Description: Based on the expression levels of CD38 on NK and T cells, the effect of an anti-CD38 antibody, daratumumab (TAB-236, Creative Biolabs), on such cells was assessed. PBMCs from a healthy donor were cultured for 96 hours in media containing 0.01, 0.1, or 1 μg/mL of daratumumab. The effect of 10% complement on the cell cultures was also tested. Untreated cells and cells treated with 0.01, 0.1 or 1 μg/mL isotype control mAb (human IgG1k) (cat #403501, BioLegend) were used as controls. After 96 hours of culture, NK and T cell frequency and numbers were measured.

[6] = human, in vivo; cited from earlier work

daratumumab: fully human IgGκ monoclonal antibody that targets CD38
reduction of NK cell numbers (NK cells [1]; 1 μg/mL, 96 hours): approximately 75%
NK cell frequency and numbers (NK cells [1]; 0.01, 0.1 or 1 μg/mL, 96 hours): dose-dependent decrease of NK cell frequency and numbers
reduction of NK cell numbers (NK cells [1]; PBMCs from a different donor, 72 hours): ~57%
complement dependence of NK cell reduction (NK cells [1]; addition of 10% complement): not complement dependent
activation of CAR T cells (anti-BCMA CAR T cells [2]): did not induce activation of CAR T cells
B2M deficient CAR T cell numbers (anti-BCMA CAR T cells [2]; 10 μg/mL, 24 hours): did not significantly reduce B2M deficient CAR T cells numbers
anti-BCMA CAR T cell numbers or frequency (anti-BCMA CAR T cells [2]; 72 hour culture, with or without 10% complement): did not affect anti-BCMA CAR T cells numbers or frequency
historical ORR (multiple myeloma): ~30%
BCMA CAR T cell numbers (anti-BCMA CAR T cells [3]): unaffected by the high daratumumab concentrations
decrease in NK cells (NK cells [4]; 1 μg/mL): 29%
further decrease in NK cells (NK cells [4]; 300 μg/mL): 38%
protective effect against anti-BCMA CAR T cell lysis (NK cells [5]; 1:1 NK:T ratio, 0.1 μg/mL, 60 hours pre-treatment): 91%
protection from NK cell lysis (NK cells [5]; 3:1 NK:CAR T ratio, 1 μg/mL, 60 hours pre-treatment): 85%
anti-BCMA CAR T cell lysis by pre-treated NK cells (NK cells [5]; NK cells pre-treated 60 hours at 0.01, 0.1 or 1 μg/mL, 3:1 NK:T, 24 hr co-culture): reduced anti-BCMA CAR T cell lysis in a dose-dependent manner
mean tumor volume at day 26 (MM.1S tumors): 1475 mm^3
T cell numbers or frequency (T cells): did not affect T cell numbers or frequency
hepatitis B reactivation [6]: 1%
herpes zoster reactivation [6]: 2%

Reference: US20220202859A1, “CANCER TREATMENT USING CD38 INHIBITOR AND/OR LENALIDOMIDE AND T-CELLS EXPRESSING A CHIMERIC ANTIGEN RECEPTOR” (CRISPR THERAPEUTICS AG, priority 2020, published 2022)
